{"source": "patent US20100009906A1", "about": "“Anticancer Treatments” (PHARMA MAR, S.A., priority 2006, published 2010)", "key": {"[1]": {"test": "Pharmacokinetics of trabectedin and docetaxel following coadministration in patients with advanced malignancies", "format": "in vivo, human", "details": "for clearance / Vd / CL / Vss: mean (SD); for Vd: read-out: Vss", "description": "FIG. 2 and FIG. 3. Pharmacokinetic parameters of trabectedin and docetaxel following coadministration in patients with advanced malignancies.\nA phase I trial combining docetaxel and trabectedin was performed. The objective of this study was to determine the maximum tolerated dose (MTD) of trabectedin in combination with docetaxel (60 mg/m^2 or 75 mg/m^2) administered every 21 days. Additional objectives were to evaluate the safety profile of this combination of drugs and to evaluate the pharmacokinetics of trabectedin and docetaxel when given in combination. The maximum tolerated dose (MTD) relates to the highest dose at which less than one third of the subjects in a dose-level cohort experienced dose-limiting toxicity (DLT).\nWe designed a dose finding trial with a fixed docetaxel dose of 60 mg/m^2 or 75 mg/m^2 administered intravenously over one hour, followed by one of six trabectedin doses (0.4, 0.6, 0.75, 0.9, 1.1, and 1.3 mg/m^2) administered intravenously over 3 hours, with one hour of rest between the administration of docetaxel and ET-743. This treatment was repeated every 21 days. […] Restricted patients received ≦1 prior chemotherapy regimen whereas unrestricted patients had no limit. In addition, protocol amendment after dose level 2a allowed administration of primary prophylactic G-CSF."}, "[2]": {"tested_on": "patients with sarcoma, breast and ovarian carcinoma", "details": "cited from earlier work"}, "[3]": {"tested_on": "human tumour xenografts (melanoma, ovarian and breast carcinoma)", "details": "athymic mice; cited from earlier work"}, "[4]": {"details": "human, in vivo, intravenous, docetaxel 60 mg/m^2 coadministered with trabectedin 400 μg/m^2 (n = 6)"}, "[5]": {"details": "human, in vivo, intravenous, docetaxel 60 mg/m^2 coadministered with trabectedin 600 μg/m^2 (n = 4)"}, "[6]": {"details": "trabectedin 400 μg/m^2 (n = 6) coadministered with 60 mg/m^2 of docetaxel"}, "[7]": {"details": "trabectedin 600 μg/m^2 (n = 3) coadministered with 60 mg/m^2 of docetaxel"}}, "note": "Read-outs that look alike come from different tables or passages of the source."}
{"smiles": "CC(=O)O[C@@]12CO[C@@H]1C[C@H](O)[C@@]1(C)C(=O)[C@H](O)C3=C(C)[C@@H](OC(=O)[C@H](O)[C@@H](NC(=O)OC(C)(C)C)c4ccccc4)C[C@@](O)([C@@H](OC(=O)c4ccccc4)[C@H]21)C3(C)C", "note": "[Docetaxel, (2R,3S)-N-carboxy-3-phenylisoserine, N-tert-butyl ester, 13-ester with 5β-20-epoxy-1,2α,4,7β,10β, 13α-hexahydroxytax-11-en-9-one 4-acetate 2-benzoate, trihydrate]", "values": [{"measurement": "Terminal t1/2", "setting": "[1]; docetaxel 60 mg/m^2 coadministered with trabectedin 400 μg/m^2 (n = 6), median (range)", "value": "19.9 (6.7-23) h"}, {"measurement": "clearance", "setting": "[1]; [4]", "value": 815, "unit": "mL/min"}, {"measurement": "Vd", "setting": "[1]; [4]", "value": 405, "unit": "L"}, {"measurement": "clearance", "setting": "[1]; [5]", "value": 797, "unit": "mL/min"}, {"measurement": "Vd", "setting": "[1]; [5]", "value": 900, "unit": "L"}, {"measurement": "half-life", "setting": "[1]; human, in vivo, intravenous, docetaxel 60 mg/m^2 coadministered with trabectedin 600 μg/m^2 (n = 4), median (range), read-out: Terminal t1/2 (converted)", "value": 2290, "unit": "min"}, {"measurement": "Impact of concomitant administration of trabectedin on the pharmacokinetics of docetaxel", "setting": "[1]; patients with advanced malignancies", "value": "not adversely impacted"}]}
{"smiles": "COc1cc2c(cc1O)CCN[C@]21CS[C@@H]2c3c(OC(C)=O)c(C)c4c(c3[C@H](COC1=O)N1[C@@H]2[C@H]2c3c(cc(C)c(OC)c3O)C[C@@H]([C@@H]1O)N2C)OCO4", "note": "[Trabectedin, Ecteinascidin 743]", "values": [{"measurement": "CL", "setting": "[1]; [6]", "value": "127 (61) L/h"}, {"measurement": "Vss", "setting": "[1]; [6]", "value": "1179 (1402) L"}, {"measurement": "Terminal t1/2", "setting": "[1]; trabectedin 400 μg/m^2 (n = 6) coadministered with 60 mg/m^2 of docetaxel, median (range)", "value": "11.4 (3.3-100) h"}, {"measurement": "CL", "setting": "[1]; [7]", "value": "101 (46) L/h"}, {"measurement": "Vss", "setting": "[1]; [7]", "value": "2754 (1946) L"}, {"measurement": "Terminal t1/2", "setting": "[1]; trabectedin 600 μg/m^2 (n = 3) coadministered with 60 mg/m^2 of docetaxel, median (range)", "value": "37.5 (11.7-98.8) h"}, {"measurement": "Responses in patients", "setting": "[2]", "value": "Promising ET-743 responses"}, {"measurement": "Anticancer activity against human tumour xenografts", "setting": "[3]", "value": "potent anticancer activity"}]}
